Source: patent US11000033B2, “Ketone or oxime compound, and herbicide” (NISSAN CHEMICAL CORPORATION, priority 2014, dated 2021)

Experiments:
Format in all cases: in vivo
Abutilon theophrasti = assay: Test Example 5: herbicidal effect by foliage application, plastic box (symbol M); settings: 320 g/ha, 3 weeks after application
Method in brief: (§1)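 Leaf-applied emulsion, water-diluted to a preset herbicide dose, on two-week-old seedlings raised in a 25° C. to 30° C. greenhouse; injury rated at 3 weeks using earlier criteria.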

[1] = system: Echinochloa crus-galli var. crus-galli; assay: Test Example 5: herbicidal effect by foliage application, plastic box (symbol H); settings: 320 g/ha, 3 weeks after application
Method in brief: as §1

Chenopodium album = assay: Test Example 5: herbicidal effect by foliage application, plastic box (symbol O); settings: 320 g/ha, 3 weeks after application
Method in brief: as §1

Setaria viridis = assay: Test Example 5: herbicidal effect by foliage application, plastic box (symbol G); settings: 320 g/ha, 3 weeks after application
Method in brief: as §1

wheat = assay: Test Example 5: effect on crop by foliage application, plastic box (symbol e); settings: 320 g/ha, 3 weeks after application
Method in brief: (§2)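 Soil: sterilized diluvial. Container: plastic box, 21 × 13 cm, 7 cm deep. Sowing: spot-like, ~1.5 cm cover. Growth: greenhouse, 25° C. to 30° C.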

[2] = system: Echinochloa crus-galli var. crus-galli; assay: Test Example 3: herbicidal effect by foliage application, Wagner pot (symbol H); settings: application herbicide amount 320 g/ha
Method in brief: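 Herbicidal activity was rated three weeks after a foliar spray of diluted emulsion concentrate, applied at a predetermined dose to plants grown for 14 days from seed in waterlogged alluvial soil within a 25–30 °C greenhouse.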

soybean = assay: Test Example 5: effect on crop by foliage application, plastic box (symbol d); settings: 320 g/ha, 3 weeks after application
Method in brief: as §2

Apera spica-venti = assay: Test Example 4: herbicidal effect by soil treatment (symbol L); settings: application herbicide amount 320 g/ha
Method in brief: (§3)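 Seeds were sown in sterilized diluvial soil, covered with about 1.5 cm of soil, and the soil surface was sprayed with a water-diluted emulsion of the compound at a predetermined rate. Plants grew in a greenhouse at 25° C. to 30° C.; effects were scored visually 3 weeks after application.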

Stellaria media = assay: Test Example 4: herbicidal effect by soil treatment (symbol P); settings: application herbicide amount 320 g/ha
Method in brief: as §3

corn = assay: Test Example 4: effect on crop by soil treatment (symbol c); settings: application herbicide amount 320 g/ha
Method in brief: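 Diluvial soil (sterilized) in boxes; seeds placed spot-wise alongside weed species; ~1.5 cm covering soil. Greenhouse, 25–30° C.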

Alopecurus myosuroides = assay: Test Example 4: herbicidal effect by soil treatment (symbol J); settings: application herbicide amount 320 g/ha
Method in brief: as §3

Amaranthus retroflexus = assay: Test Example 4: herbicidal effect by soil treatment (symbol N); settings: application herbicide amount 320 g/ha
Method in brief: as §3

Monochoria vaginalis = assay: Test Example 1: herbicidal activity, application before weed generation in submerged conditions (symbol C); settings: application herbicide amount 320 g/ha
Method in brief: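 Steps: alluvial soil flooded to 4 cm; weed seeds sown together; rice seedlings (2.5 leaf) transplanted; diluted emulsion applied to water surface the same day as sowing; plants grown at 25–30 °C in greenhouse; herbicidal effect rated on a 0–5 scale at 3 weeks.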

Lolium multiflorum Lam. = assay: Test Example 4: herbicidal effect by soil treatment (symbol K); settings: application herbicide amount 320 g/ha
Method in brief: as §3

[3] = system: directly sowed rice plant; assay: Test Example 3: effect on crop by foliage application, Wagner pot (symbol b); settings: application herbicide amount 320 g/ha
Method in brief: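 Plants are raised from seed in flooded paddy conditions: water stands 0.1–0.5 cm over alluvial soil, and the pot is kept in a greenhouse at 25–30 °C. Species sown are barnyardgrass (E. crus-galli var. crus-galli), Leptochloa chinensis, Cyperus difformis and rice.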

Veronica persica = assay: Test Example 5: herbicidal effect by foliage application, plastic box (symbol R); settings: 320 g/ha, 3 weeks after application
Method in brief: as §1

Row | SMILES | M: Abutilon theophrasti, herbicidal effect grade (Abutilon theophrasti) | H: Echinochloa crus-galli var. crus-galli, herbicidal effect grade [1] | O: Chenopodium album, herbicidal effect grade (Chenopodium album) | G: Setaria viridis, herbicidal effect grade (Setaria viridis) | e: wheat, effect on crop grade (wheat) | herbicidal effect on H (Echinochloa crus-galli var. crus-galli), grade 0-5 [2] | d: soybean, effect on crop grade (soybean) | L (Apera spica-venti) herbicidal effect grade (Apera spica-venti) | P (Stellaria media) herbicidal effect grade (Stellaria media) | c (corn) effect on crop grade (corn) | J (Alopecurus myosuroides) herbicidal effect grade (Alopecurus myosuroides) | N (Amaranthus retroflexus) herbicidal effect grade (Amaranthus retroflexus) | Herbicidal effect grade, C: Monochoria vaginalis (Monochoria vaginalis) | K (Lolium multiflorum Lam.) herbicidal effect grade (Lolium multiflorum Lam.) | effect on crop b (directly sowed rice plant), grade 0-5 [3] | R: Veronica persica, herbicidal effect grade (Veronica persica)
1 | CON=C(C)CC1CC(OCC#C[Si](C)(C)C)=C(c2c(C)cc(C)cc2C)C1=O (stereo not drawn) [1-031] | 0 (Herbicidal ratio of 5% or lower (almost no effect)) | 1 (Herbicidal ratio of 5% or higher and lower than 20%) | 0 (Herbicidal ratio of 5% or lower (almost no effect)) | 1 (Herbicidal ratio of 5% or higher and lower than 20%) | 0 (Herbicidal ratio of 5% or lower (almost no effect)) | 3 (Herbicidal ratio of 40% or higher and lower than 70%) | 0 (Herbicidal ratio of 5% or lower (almost no effect)) | 0 (Herbicidal ratio of 5% or lower (almost no effect)) | 0 (Herbicidal ratio of 5% or lower (almost no effect)) | 0 (Herbicidal ratio of 5% or lower (almost no effect)) | 0 (Herbicidal ratio of 5% or lower (almost no effect)) | 0 (Herbicidal ratio of 5% or lower (almost no effect)) | 2 (Herbicidal ratio of 20% or higher and lower than 40%) | 0 (Herbicidal ratio of 5% or lower (almost no effect)) | 5 (Herbicidal ratio of 90% or more (almost completely withered)) | –
2 | COCCOC1=C(c2c(C)cc(C)cc2C)C(=O)C(CC(C)=NOC)C1 (stereo not drawn) [1-037] | 0 (Herbicidal ratio of 5% or lower (almost no effect)) | 0 (Herbicidal ratio of 5% or lower (almost no effect)) | 0 (Herbicidal ratio of 5% or lower (almost no effect)) | 0 (Herbicidal ratio of 5% or lower (almost no effect)) | 0 (Herbicidal ratio of 5% or lower (almost no effect)) | 0 (Herbicidal ratio of 5% or lower (almost no effect)) | 0 (Herbicidal ratio of 5% or lower (almost no effect)) | 0 (Herbicidal ratio of 5% or lower (almost no effect)) | 0 (Herbicidal ratio of 5% or lower (almost no effect)) | 0 (Herbicidal ratio of 5% or lower (almost no effect)) | 0 (Herbicidal ratio of 5% or lower (almost no effect)) | 0 (Herbicidal ratio of 5% or lower (almost no effect)) | 0 (Herbicidal ratio of 5% or lower (almost no effect)) | 0 (Herbicidal ratio of 5% or lower (almost no effect)) | 0 (Herbicidal ratio of 5% or lower (almost no effect)) | –
3 | CC(CC1CC(O)=C(c2c(C)cc(C)cc2C)C1=O)=NOCC[Si](C)(C)C (stereo not drawn) [1-055] | 0 (Herbicidal ratio of 5% or lower (almost no effect)) | 4 (Herbicidal ratio of 70% or higher and lower than 90%) | 1 (Herbicidal ratio of 5% or higher and lower than 20%) | 3 (Herbicidal ratio of 40% or higher and lower than 70%) | 0 (Herbicidal ratio of 5% or lower (almost no effect)) | 5 (Herbicidal ratio of 90% or more (almost completely withered)) | 2 (Herbicidal ratio of 20% or higher and lower than 40%) | 2 (Herbicidal ratio of 20% or higher and lower than 40%) | 0 (Herbicidal ratio of 5% or lower (almost no effect)) | 0 (Herbicidal ratio of 5% or lower (almost no effect)) | 1 (Herbicidal ratio of 5% or higher and lower than 20%) | 0 (Herbicidal ratio of 5% or lower (almost no effect)) | 0 (Herbicidal ratio of 5% or lower (almost no effect)) | 5 (Herbicidal ratio of 90% or more (almost completely withered)) | 5 (Herbicidal ratio of 90% or more (almost completely withered)) | –
4 | CC(CC1CC(O)=C(c2c(C)cc(C)cc2C)C1=O)=NOCC=CCl (stereo not drawn) [1-056] | 4 (Herbicidal ratio of 70% or higher and lower than 90%) | 5 (Herbicidal ratio of 90% or more (almost completely withered)) | 1 (Herbicidal ratio of 5% or higher and lower than 20%) | 5 (Herbicidal ratio of 90% or more (almost completely withered)) | 5 (Herbicidal ratio of 90% or more (almost completely withered)) | 5 (Herbicidal ratio of 90% or more (almost completely withered)) | 4 (Herbicidal ratio of 70% or higher and lower than 90%) | 5 (Herbicidal ratio of 90% or more (almost completely withered)) | 0 (Herbicidal ratio of 5% or lower (almost no effect)) | 3 (Herbicidal ratio of 40% or higher and lower than 70%) | 5 (Herbicidal ratio of 90% or more (almost completely withered)) | 3 (Herbicidal ratio of 40% or higher and lower than 70%) | 4 (Herbicidal ratio of 70% or higher and lower than 90%) | 5 (Herbicidal ratio of 90% or more (almost completely withered)) | 5 (Herbicidal ratio of 90% or more (almost completely withered)) | –
5 | CON=C(CC1CC(OC(=O)COc2ccccc2)=C(c2c(C)cc(C)cc2C)C1=O)C1CC1 (stereo not drawn) [1-063] | 2 (Herbicidal ratio of 20% or higher and lower than 40%) | 5 (Herbicidal ratio of 90% or more (almost completely withered)) | 0 (Herbicidal ratio of 5% or lower (almost no effect)) | 5 (Herbicidal ratio of 90% or more (almost completely withered)) | 4 (Herbicidal ratio of 70% or higher and lower than 90%) | 5 (Herbicidal ratio of 90% or more (almost completely withered)) | 3 (Herbicidal ratio of 40% or higher and lower than 70%) | 5 (Herbicidal ratio of 90% or more (almost completely withered)) | – | 4 (Herbicidal ratio of 70% or higher and lower than 90%) | 5 (Herbicidal ratio of 90% or more (almost completely withered)) | 0 (Herbicidal ratio of 5% or lower (almost no effect)) | 0 (Herbicidal ratio of 5% or lower (almost no effect)) | 5 (Herbicidal ratio of 90% or more (almost completely withered)) | 5 (Herbicidal ratio of 90% or more (almost completely withered)) | 4 (Herbicidal ratio of 70% or higher and lower than 90%)
